# Experimental data from patent US20250320193A1, “OXOISOINDOLINYL SUBSTITUTED PIPERIDINEDIONE DERIVATIVE AND USE THEREOF” (GLUETACS THERAPEUTICS (SHANGHAI) CO., LTD., priority 2022, published 2025).
# Biological target: human Cereblon WT GST-tagged protein (Homo sapiens (Human), UniProt Q96SW2)
# Test: CRBN-binding affinity, HTRF (CEREBLON BINDING kit, CISBIO)
# Conditions: HTRF inhibitory activity
# Protocol: I. Determination of CRBN-binding affinity of compounds of the present disclosure:
# The CEREBLON BINDING kits (specification: 10,000 tests; product number: Catalog #64BDCRBNPEH; CISBIO company) was used to determine the CRBN binding ability of the compounds to be tested through a HTRF method (homogeneous time-resolved fluorescence). The specific methods are as follows: • 1. […] Then, 2.5 μL of human Cereblon WT GST-tagged protein solution was added to each well. Finally, 5 μL of the thoroughly mixed Thalidomide-Red reagent and GST Eu antibody working solution were added to each of the aforementioned wells. […] The blank control wells were sequentially added with 2.5 μL of diluent #9 (1X) solution, 2.5 μL of PROTAC binding buffer, and 5 μL of thoroughly mixed Thalidomide-Red reagent and GST Eu antibody working solution. • 4.
# The corresponding CRBN binding inhibition rate was calculated using the following method: […]
# OD 620 nmcompound is the absorbance value of each well of the compounds to be tested of the present disclosure at an emission wavelength of 620 nm. […] OD 620 nmcontrol is the absorbance value of the blank control well at an emission wavelength of 620 nm. […] OD 620 nmStd0 is the absorbance value of the solvent control well at an emission wavelength of 620 nm.
# Chain of human Cereblon WT GST-tagged protein (Q96SW2 whole entry): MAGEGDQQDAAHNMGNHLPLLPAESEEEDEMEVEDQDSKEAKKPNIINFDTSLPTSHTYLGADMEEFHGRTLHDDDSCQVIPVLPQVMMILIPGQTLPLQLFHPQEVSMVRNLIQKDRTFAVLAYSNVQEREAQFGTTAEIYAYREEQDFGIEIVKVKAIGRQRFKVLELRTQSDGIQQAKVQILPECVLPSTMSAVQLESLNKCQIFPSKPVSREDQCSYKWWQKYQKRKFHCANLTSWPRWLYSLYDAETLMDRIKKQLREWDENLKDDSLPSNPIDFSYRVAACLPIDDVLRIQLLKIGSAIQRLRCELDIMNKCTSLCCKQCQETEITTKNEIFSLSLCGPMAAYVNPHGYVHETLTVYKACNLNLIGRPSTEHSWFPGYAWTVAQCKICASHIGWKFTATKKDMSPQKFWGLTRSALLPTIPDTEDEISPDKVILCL
row,IC50 [µM],Structure (SMILES)
1,1 to 1.9,"O=C1CCC(N2Cc3cc(CN4CCN(C(c5ccc(Cl)cc5)c5ccc(Cl)cc5)CC4)cc(F)c3C2=O)C(=O)N1 (stereo not shown) [GT-03568, 3-(5-((4-(bis(4-chlorophenyl)methyl)piperazin-1-yl)methyl)-7-fluoro-1-oxoisoindolin-2-yl)piperidine-2,6-dione]"
2,< 0.5,"O=C1CCC(N2Cc3c(ccc(CN4C[C@H]5C[C@@H]4CN5C(c4ccccc4)c4ccccc4)c3F)C2=O)C(=O)N1 (stereo partly drawn) [GT-03573, 3-(5-(((1R,4R)-5-benzhydryl-2,5-diazabicyclo[2.2.1]heptan-2-yl)methyl)-4-fluoro-1-oxoisoindolin-2-yl)piperidine-2,6-dione]"
3,< 0.5,"O=C1CCC(N2Cc3cc(CN4C[C@H]5C[C@@H]4CN5C(c4ccccc4)c4ccccc4)cc(F)c3C2=O)C(=O)N1 (stereo partly drawn) [GT-03576, 3-(5-(((1R,4R)-5-benzhydryl-2,5-diazabicyclo[2.2.1]heptan-2-yl)methyl)-7-fluoro-1-oxoisoindolin-2-yl)piperidine-2,6-dione]"
4,< 0.5,"C[C@@H]1CN(C(c2ccccc2)c2ccccc2)CCN1Cc1cc(F)c2c(c1)CN(C1CCC(=O)NC1=O)C2=O (stereo partly drawn) [GT-03577, 3-(5-(((R)-4-benzhydryl-2-methylpiperazin-1-yl)methyl)-7-fluoro-1-oxoisoindolin-2-yl)piperidine-2,6-dione]"
5,0.5 to 1,"O=C1CCC(N2Cc3c(CN4CCN(C(c5ccccc5)c5ccccc5)CC4)cccc3C2=O)C(=O)N1 (stereo not shown) [GT-03646, 3-(4-((4-benzhydrylpiperazin-1-yl)methyl)-1-oxoisoindolin-2-yl)piperidine-2,6-dione]"
6,< 0.5,"O=C1CCC(N2Cc3cc(CN4CCN(C(c5ccccc5)c5ccccn5)CC4)cc(F)c3C2=O)C(=O)N1 (stereo not shown) [GT-03834, 3-(7-fluoro-1-oxo-5-((4-(phenyl(pyridin-2-yl)methyl)piperazin-1-yl)methyl)isoindolin-2-yl)piperidine-2,6-dione]"
7,< 0.5,"CC1CN(C(c2ccccc2)c2ccccc2)CC(C)N1Cc1cc(F)c2c(c1)CN(C1CCC(=O)NC1=O)C2=O (stereo not shown) [GT-03874, 3-(5-((4-benzhydryl-2,6-dimethylpiperazin-1-yl)methyl)-7-fluoro-1-oxoisoindolin-2-yl)piperidine-2,6-dione]"
8,0.5 to 1,"O=C1CCC(N2Cc3c(CN4CCN(C(c5cccc(F)c5)c5cccc(F)c5)CC4)cccc3C2=O)C(=O)N1 (stereo not shown) [GT-03875, 3-(4-((4-(bis(3-fluorophenyl)methyl)piperazin-1-yl)methyl)-1-oxoisoindolin-2-yl)piperidine-2,6-dione]"
9,< 0.5,"CC1(C)CN(Cc2ccc3c(c2)CN(C2CCC(=O)NC2=O)C3=O)CCN1C(c1ccccc1)c1ccccc1 (stereo not shown) [GT-04165, 3-(5-((4-benzhydryl-3,3-dimethylpiperazin-1-yl)methyl)-1-oxoisoindolin-2-yl)piperidine-2,6-dione]"
10,0.5 to 1,"CC1(C)CN(Cc2ccc3c(c2F)CN(C2CCC(=O)NC2=O)C3=O)CCN1C(c1ccccc1)c1ccccc1 (stereo not shown) [GT-04166, 3-(5-((4-benzhydryl-3,3-dimethylpiperazin-1-yl)methyl)-4-fluoro-1-oxoisoindolin-2-yl)piperidine-2,6-dione]"
11,< 0.5,"O=C1CCC(N2Cc3cc(CN4C(=O)c5cccc6cccc(c56)C4=O)ccc3C2=O)C(=O)N1 (stereo not shown) [GT-04244, 2-((2-(2,6-dioxopiperidin-3-yl)-1-oxoisoindolin-5-yl)methyl)-1H-benzo[de]isoquinoline-1,3(2H)-dione]"
12,1 to 1.9,"O=C1CCC(N2Cc3ccc(CN4CCN(C(c5ccccc5)c5ccccc5)CC4)cc3C2=O)C(=O)N1 (stereo not shown) [GT-05686, 3-(6-((4-benzhydrylpiperazin-1-yl)methyl)-1-oxoisoindolin-2-yl)piperidine-2,6-dione]"
13,1 to 1.9,"O=C1CCC(N2Cc3cc(CN4CCN(C(c5ccccn5)c5ccccn5)CC4)cc(F)c3C2=O)C(=O)N1 (stereo not shown) [GT-05714, 3-(5-((4-(di(pyridin-2-yl)methyl)piperazin-1-yl)methyl)-7-fluoro-1-oxoisoindolin-2-yl)piperidine-2,6-dione]"
14,1 to 1.9,"O=C1CCC(N2Cc3c(CN4CCN(C(c5ccccn5)c5ccccn5)CC4)cccc3C2=O)C(=O)N1 (stereo not shown) [GT-05715, 3-(4-((4-(di(pyridin-2-yl)methyl)piperazin-1-yl)methyl)-1-oxoisoindolin-2-yl)piperidine-2,6-dione]"
15,< 0.5,"O=C1CCC(N2Cc3c(ccc(CN4CCN(C(c5cccnc5)c5cccnc5)CC4)c3F)C2=O)C(=O)N1 (stereo not shown) [GT-05716, 3-(5-((4-(di(pyridin-3-yl)methyl)piperazin-1-yl)methyl)-4-fluoro-1-oxoisoindolin-2-yl)piperidine-2,6-dione]"
16,0.5 to 1,"O=C1CCC(N2Cc3ccc(CN4CCN(C(c5ccc(F)cc5)c5ccc(F)cc5)CC4)cc3C2=O)C(=O)N1 (stereo not shown) [GT-05719, 3-(6-((4-(bis(4-fluorophenyl)methyl)piperazin-1-yl)methyl)-1-oxoisoindolin-2-yl)piperidine-2,6-dione]"
17,1 to 1.9,"O=C1CCC(N2Cc3cccc(CN4CCN(C(c5ccc(F)cc5)c5ccc(F)cc5)CC4)c3C2=O)C(=O)N1 (stereo not shown) [GT-05720, 3-(7-((4-(bis(4-fluorophenyl)methyl)piperazin-1-yl)methyl)-1-oxoisoindolin-2-yl)piperidine-2,6-dione]"
18,0.5 to 1,"O=C1CCC(N2Cc3c(C(=O)N4CCN(C(c5ccccc5)c5ccccc5)CC4)cccc3C2=O)C(=O)N1 (stereo not shown) [GT-05721, 3-(4-(4-benzhydrylpiperazine-1-carbonyl)-1-oxoisoindolin-2-yl)piperidine-2,6-dione]"
19,1 to 1.9,"O=C1CCC(N2Cc3ccc(CN4CCN(C(c5ccc(Cl)cc5)c5ccc(Cl)cc5)CC4)cc3C2=O)C(=O)N1 (stereo not shown) [GT-05735, 3-(6-((4-(bis(4-chlorophenyl)methyl)piperazin-1-yl)methyl)-1-oxoisoindolin-2-yl)piperidine-2,6-dione]"
20,1 to 1.9,"O=C1CCC(N2Cc3cccc(CN4CCN(C(c5ccc(Cl)cc5)c5ccc(Cl)cc5)CC4)c3C2=O)C(=O)N1 (stereo not shown) [GT-05736, 3-(7-((4-(bis(4-chlorophenyl)methyl)piperazin-1-yl)methyl)-1-oxoisoindolin-2-yl)piperidine-2,6-dione]"
21,1 to 1.9,"O=C1CCC(N2Cc3cc(NN4CCN(C(c5ccccc5)c5ccccc5)CC4)ccc3C2=O)C(=O)N1 (stereo not shown) [GT-05743, 3-(5-((4-benzhydrylpiperazin-1-yl)amino)-1-oxoisoindolin-2-yl)piperidine-2,6-dione]"
22,< 0.5,"O=C1CCC(N2Cc3cc(C=C4CN(C(c5ccccc5)c5ccccc5)C4)ccc3C2=O)C(=O)N1 (stereo not shown) [GT-05745, 3-(5-((1-benzhydrylazetidin-3-ylidene)methyl)-1-oxoisoindolin-2-yl)piperidine-2,6-dione]"
23,< 0.5,"O=C1CCC(N2Cc3cc(NC4CCN(C(c5ccccc5)c5ccccc5)CC4)ccc3C2=O)C(=O)N1 (stereo not shown) [GT-05864, 3-(5-((1-benzhydrylpiperidin-4-yl)amino)-1-oxoisoindolin-2-yl)piperidine-2,6-dione]"
24,1 to 1.9,"O=C1CCC(N2Cc3cc(-c4ccc(CN5CCN(C(c6ccccc6)c6ccccc6)CC5)cc4)ccc3C2=O)C(=O)N1 (stereo not shown) [GT-05867, 3-(5-(4-((4-benzhydrylpiperazin-1-yl)methyl)phenyl)-1-oxoisoindolin-2-yl)piperidine-2,6-dione]"
25,1 to 1.9,"O=C1CCC(N2Cc3cc(C(=O)N4CCN(C(c5ccc(Cl)cc5)c5ccc(Cl)cc5)CC4)cc(F)c3C2=O)C(=O)N1 (stereo not shown) [GT-05887, 3-(5-(4-(bis(4-chlorophenyl)methyl)piperazine-1-carbonyl)-7-fluoro-1-oxoisoindolin-2-yl)piperidine-2,6-dione]"
26,1 to 1.9,"O=C1CCC(N2Cc3ccc(C(=O)N4CCN(C(c5ccc(Cl)cc5)c5ccc(Cl)cc5)CC4)cc3C2=O)C(=O)N1 (stereo not shown) [GT-05888, 3-(6-(4-(bis(4-chlorophenyl)methyl)piperazine-1-carbonyl)-1-oxoisoindolin-2-yl)piperidine-2,6-dione]"
27,< 0.5,"O=C1CCC(N2Cc3cc(CN4C[C@@H]5C[C@H]4CN5C(c4ccccc4)c4ccccc4)cc(F)c3C2=O)C(=O)N1 (stereo partly drawn) [GT-05895, 3-(5-(((1S,4S)-5-benzhydryl-2,5-diazabicyclo[2.2.1]heptan-2-yl)methyl)-7-fluoro-1-oxoisoindolin-2-yl)piperidine-2,6-dione]"

row,Structure (SMILES),IC50 [µM]
1,"O=C1CCC(N2C(=O)c3ccc(CN4C5CC4CN(C(c4ccccc4)c4ccccc4)C5)cc3C2=O)C(=O)N1 (stereo not shown) [GT-05728, 5-((3-benzhydryl-3,6-diazabicyclo[3.1.1]heptan-6-yl)methyl)-2-(2,6-dioxopiperidin-3-yl) isoindoline-1,3-dione]",1 to 1.9
2,"O=C1CCC(N2Cc3cc(N4CC5CCC(C4)N5C(c4ccccc4)c4ccccc4)ccc3C2=O)C(=O)N1 (stereo not shown) [GT-05865, 3-(5-(8-benzhydryl-3,8-diazabicyclo[3.2.1]octan-3-yl)-1-oxoisoindolin-2-yl)piperidine-2,6-dione]",0.5 to 1
3,"O=C1CCC(N2Cc3cc(CN4CC5CCC(C4)N5C(c4ccccc4)c4ccccc4)c(F)cc3C2=O)C(=O)N1 (stereo not shown) [GT-05896, 3-(5-((8-benzhydryl-3,8-diazabicyclo[3.2.1]octan-3-yl)methyl)-6-fluoro-1-oxoisoindolin-2-yl)piperidine-2,6-dione]",0.5 to 1
4,"O=C1CCC(N2Cc3cc(CN4CC5CCC(C4)N5C(c4ccccc4)c4ccccc4)cc(F)c3C2=O)C(=O)N1 (stereo not shown) [GT-05897, 3-(5-((8-benzhydryl-3,8-diazabicyclo[3.2.1]octan-3-yl)methyl)-7-fluoro-1-oxoisoindolin-2-yl)piperidine-2,6-dione]",0.5 to 1
